The supplement of paper PMC10307832

Assays:
Test in all cases: relative viability (nuclei count vs DMSO), 5 days (fraction); higher = more cells survive
[1] = system: SW 1573
How it was run: (§1)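 Each reported value is a median over duplicate plates. It expresses relative viability: treated-well nuclei count divided by vehicle-well nuclei count. Lung cancer cell lines in 1536-well plates were dosed by pin tool a day after seeding, alone with one drug or with a fixed anchor-drug dose plus five library-drug doses (not always all listed) in √10 steps, and nuclei were counted after 5 days.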

[2] = system: EMC-BAC-2
How it was run: as §1

[3] = system: NCI-H358
How it was run: as §1

[4] = system: LU99A
How it was run: as §1

[5] = system: NCI-H1395
How it was run: as §1

[6] = system: LC-2-ad
How it was run: as §1

[7] = system: NCI-H2023
How it was run: as §1

[8] = system: NCI-H1734
How it was run: as §1

[9] = system: NCI-H2126
How it was run: as §1

[10] = system: SW 900
How it was run: as §1

[11] = system: NCI-H1915
How it was run: as §1

In the case of `CCNC(=O)c1noc(-c2cc(C(C)C)c(O)cc2O)c1-c1ccc(CN2CCOCC2)cc1` [Luminespib] + O=C(c1cc(Cc2n[nH]c(=O)c3ccccc23)ccc1F)N1CCN(C(=O)C2CC2)CC1 [Olaparib] (partner 8 µM), the relative viability ([1]; first compound 0.002 µM) is reported as 0.445, the relative viability ([1]; first compound 0.006325 µM) is reported as 0.4 and the relative viability ([1]; first compound 0.02 µM) is reported as 0.165. The relative viability ([1]; first compound 0.06325 µM) was 0.101, the relative viability ([1]; first compound 0.2 µM) was 0.0793 and the relative viability ([2]; first compound 0.002 µM) was 0.489. It also gave a relative viability ([2]; first compound 0.006325 µM) of 0.482, a relative viability ([2]; first compound 0.02 µM) of 0.471 and a relative viability ([2]; first compound 0.06325 µM) of 0.234. It also gave a relative viability ([2]; first compound 0.2 µM) of 0.242, a relative viability ([3]; first compound 0.002 µM) of 0.637 and a relative viability ([3]; first compound 0.006325 µM) of 0.655. The relative viability ([3]; first compound 0.02 µM) was 0.577, the relative viability ([3]; first compound 0.06325 µM) was 0.0817 and the relative viability ([3]; first compound 0.2 µM) was 0.0712. The relative viability ([4]; first compound 0.002 µM) was 0.294, the relative viability ([4]; first compound 0.006325 µM) was 0.236 and the relative viability ([4]; first compound 0.02 µM) was 0.226. It also gave a relative viability ([4]; first compound 0.06325 µM) of 0.174, a relative viability ([4]; first compound 0.2 µM) of 0.138 and a relative viability ([5]; first compound 0.002 µM) of 0.465. It also gave a relative viability ([5]; first compound 0.006325 µM) of 0.454, a relative viability ([5]; first compound 0.02 µM) of 0.427 and a relative viability ([5]; first compound 0.06325 µM) of 0.403. It also gave a relative viability ([5]; first compound 0.2 µM) of 0.383, a relative viability ([6]; first compound 0.002 µM) of 0.704 and a relative viability ([6]; first compound 0.006325 µM) of 0.713. It also gave a relative viability ([6]; first compound 0.02 µM) of 0.866, a relative viability ([6]; first compound 0.06325 µM) of 0.48 and a relative viability ([6]; first compound 0.2 µM) of 0.297. The relative viability ([7]; first compound 0.002 µM) was 0.459, the relative viability ([7]; first compound 0.006325 µM) was 0.418 and the relative viability ([7]; first compound 0.02 µM) was 0.219. It also gave a relative viability ([7]; first compound 0.06325 µM) of 0.056, a relative viability ([7]; first compound 0.2 µM) of 0.0536 and a relative viability ([8]; first compound 0.002 µM) of 0.646. It also gave a relative viability ([8]; first compound 0.006325 µM) of 0.595, a relative viability ([8]; first compound 0.02 µM) of 0.476 and a relative viability ([8]; first compound 0.06325 µM) of 0.152. It also gave a relative viability ([8]; first compound 0.2 µM) of 0.13, a relative viability ([9]; first compound 0.002 µM) of 0.924 and a relative viability ([9]; first compound 0.006325 µM) of 0.887. For the same molecule, the relative viability ([9]; first compound 0.06325 µM) was 0.899, the relative viability ([9]; first compound 0.2 µM) was 0.903 and the relative viability ([10]; first compound 0.002 µM) was 0.688. It also gave a relative viability ([10]; first compound 0.006325 µM) of 0.81, a relative viability ([10]; first compound 0.02 µM) of 0.818 and a relative viability ([10]; first compound 0.06325 µM) of 0.163. The relative viability ([10]; first compound 0.2 µM) was 0.152, the relative viability ([11]; first compound 0.002 µM) was 0.254 and the relative viability ([11]; first compound 0.006325 µM) was 0.269.
